Test results from ChEMBL document CHEMBL5257023, “Identification of leads for antiproliferative activity on MDA-MB-435 human breast cancer cells through pharmacophore and CYP1A1-mediated metabolism” (Eur J Med Chem, 2016).

How the values were obtained:
MDA-MB-468 [1] = assay: Anticancer activity against human MDA-MB-468 cells assessed as cell growth at 0.1 uM incubated for 48 hrs by SRB assay; assay type: functional; details: read-out: Activity
NCI-H226 [2] = assay: Anticancer activity against human NCI-H226 cells assessed as cell growth at 1 uM incubated for 48 hrs by SRB assay; assay type: functional; details: read-out: Activity
MCF7 [3] = assay: Anticancer activity against human MCF7 cells assessed as cell growth at 10 uM incubated for 48 hrs by SRB assay; assay type: functional; details: read-out: Activity
CYP1A1 [4] = molecular target: T1, CYP1A1 (Homo sapiens, UniProt P04798); assay: Inhibition of recombinant CYP1A1 (unknown origin) assessed as residual enzyme activity using 7-ethoxyresorufin as substrate at 50 uM incubated for 15 mins by resorufin dye based spectrofluorimetry (reference value: 100%); assay type: ADME; details: recombinant CYP1A1, probe 7-ethoxyresorufin, read-out: Activity
T1 sequence (P04798 whole entry): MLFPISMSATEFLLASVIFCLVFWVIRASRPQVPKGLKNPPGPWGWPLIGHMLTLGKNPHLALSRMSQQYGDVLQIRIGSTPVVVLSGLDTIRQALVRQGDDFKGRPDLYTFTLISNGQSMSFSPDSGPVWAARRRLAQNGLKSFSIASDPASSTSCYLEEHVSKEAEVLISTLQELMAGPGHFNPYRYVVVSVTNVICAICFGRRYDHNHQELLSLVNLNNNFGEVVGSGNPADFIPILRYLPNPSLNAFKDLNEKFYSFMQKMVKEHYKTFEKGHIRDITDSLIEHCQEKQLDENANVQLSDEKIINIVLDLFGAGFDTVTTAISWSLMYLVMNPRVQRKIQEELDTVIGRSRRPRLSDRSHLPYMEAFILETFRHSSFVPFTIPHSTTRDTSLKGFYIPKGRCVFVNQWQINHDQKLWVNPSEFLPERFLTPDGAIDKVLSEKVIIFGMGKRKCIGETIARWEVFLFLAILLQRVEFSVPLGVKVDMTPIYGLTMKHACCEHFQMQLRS

MDA-MB-468 [5] = assay: Anticancer activity against human MDA-MB-468 cells assessed as inhibition of cell growth incubated for 48 hrs by SRB assay; assay type: functional; details: for CC50: read-out: LC50 (the source's name)
MDA-MB-435 [6] = assay: Anticancer activity against human MDA-MB-435 cells assessed as cell growth at 10 uM incubated for 48 hrs by SRB assay; assay type: functional; details: read-out: Activity
NCI-H226 [7] = assay: Anticancer activity against human NCI-H226 cells assessed as cell growth at 100 uM incubated for 48 hrs by SRB assay; assay type: functional; details: read-out: Activity
Cytochrome P450 1A1 [8] = molecular target: T2, Cytochrome P450 1A1 (Homo sapiens, UniProt P04798); assay: Inhibition of recombinant CYP1A1 (unknown origin) assessed as decrease in EROD activity using 7-ethoxyresorufin as substrate incubated for 15 mins by resorufin dye based spectrofluorimetry; assay type: ADME
T2 sequence (P04798 whole entry): T1 sequence (P04798 whole entry)

MDA-MB-468 [9] = assay: Anticancer activity against human MDA-MB-468 cells assessed as cell growth at 100 uM incubated for 48 hrs by SRB assay; assay type: functional; details: read-out: Activity
NCI-H226 [10] = assay: Anticancer activity against human NCI-H226 cells assessed as inhibition of cell growth incubated for 48 hrs by SRB assay; assay type: functional
MCF7 [11] = assay: Anticancer activity against human MCF7 cells assessed as inhibition of cell growth incubated for 48 hrs by SRB assay; assay type: functional; details: for CC50: read-out: LC50 (the source's name)
CYP1A1 [12] = molecular target: T1, CYP1A1; assay: Inhibition of recombinant CYP1A1 (unknown origin) assessed as residual enzyme activity using 7-ethoxyresorufin as substrate at 0.01 uM incubated for 15 mins by resorufin dye based spectrofluorimetry (reference value: 100%); assay type: ADME; details: recombinant CYP1A1, probe 7-ethoxyresorufin, read-out: Activity
CYP1A1 [13] = molecular target: T1, CYP1A1; assay: Inhibition of recombinant CYP1A1 (unknown origin) assessed as residual enzyme activity using 7-ethoxyresorufin as substrate at 10 uM incubated for 15 mins by resorufin dye based spectrofluorimetry (reference value: 100%); assay type: ADME; details: recombinant CYP1A1, probe 7-ethoxyresorufin, read-out: Activity
NCI-H226 [14] = assay: Anticancer activity against human NCI-H226 cells assessed as cell growth at 10 uM incubated for 48 hrs by SRB assay; assay type: functional; details: read-out: Activity
MDA-MB-468 [15] = assay: Anticancer activity against human MDA-MB-468 cells assessed as cell growth at 1 uM incubated for 48 hrs by SRB assay; assay type: functional; details: read-out: Activity
MDA-MB-435 [16] = assay: Anticancer activity against human MDA-MB-435 cells assessed as inhibition of cell growth incubated for 48 hrs by SRB assay; assay type: functional
CYP1A1 [17] = molecular target: T1, CYP1A1; assay: Inhibition of recombinant CYP1A1 (unknown origin) assessed as residual enzyme activity using 7-ethoxyresorufin as substrate at 100 uM incubated for 15 mins by resorufin dye based spectrofluorimetry (reference value: 100%); assay type: ADME; details: recombinant CYP1A1, probe 7-ethoxyresorufin, read-out: Activity
MDA-MB-435 [18] = assay: Anticancer activity against human MDA-MB-435 cells assessed as cell growth at 100 uM incubated for 48 hrs by SRB assay; assay type: functional; details: read-out: Activity
MDA-MB-435 [19] = assay: Anticancer activity against human MDA-MB-435 cells assessed as cell growth at 1 uM incubated for 48 hrs by SRB assay; assay type: functional; details: read-out: Activity
MDA-MB-435 [20] = assay: Anticancer activity against human MDA-MB-435 cells assessed as cell growth at 0.1 uM incubated for 48 hrs by SRB assay; assay type: functional; details: read-out: Activity
NCI-H226 [21] = assay: Anticancer activity against human NCI-H226 cells assessed as cell growth at 0.1 uM incubated for 48 hrs by SRB assay; assay type: functional; details: read-out: Activity
CYP1A1 [22] = molecular target: T1, CYP1A1; assay: Inhibition of recombinant CYP1A1 (unknown origin) assessed as residual enzyme activity using 7-ethoxyresorufin as substrate at 0.1 uM incubated for 15 mins by resorufin dye based spectrofluorimetry (reference value: 100%); assay type: ADME; details: recombinant CYP1A1, probe 7-ethoxyresorufin, read-out: Activity
MCF7 [23] = assay: Anticancer activity against human MCF7 cells assessed as cell growth at 1 uM incubated for 48 hrs by SRB assay; assay type: functional; details: read-out: Activity
CYP1A1 [24] = molecular target: T1, CYP1A1; assay: Inhibition of recombinant CYP1A1 (unknown origin) assessed as residual enzyme activity using 7-ethoxyresorufin as substrate at 1 uM incubated for 15 mins by resorufin dye based spectrofluorimetry (reference value: 100%); assay type: ADME; details: recombinant CYP1A1, probe 7-ethoxyresorufin, read-out: Activity
MCF7 [25] = assay: Anticancer activity against human MCF7 cells assessed as cell growth at 0.1 uM incubated for 48 hrs by SRB assay; assay type: functional; details: read-out: Activity
MCF7 [26] = assay: Anticancer activity against human MCF7 cells assessed as cell growth at 100 uM incubated for 48 hrs by SRB assay; assay type: functional; details: read-out: Activity
MDA-MB-468 [27] = assay: Anticancer activity against human MDA-MB-468 cells assessed as cell growth at 10 uM incubated for 48 hrs by SRB assay; assay type: functional; details: read-out: Activity
Cytochrome P450 1A1 [28] = molecular target: T2, Cytochrome P450 1A1; assay: Inhibition of recombinant CYP1A1 (unknown origin) assessed as decrease in EROD activity using 7-ethoxyresorufin as substrate upto 100 uM incubated for 15 mins by resorufin dye based spectrofluorimetry; assay type: ADME; details: recombinant enzyme, 0.25 h

SMILES | growth at 0.1 µM (MDA-MB-468 [1]) [%] | growth at 1 µM (NCI-H226 [2]) [%] | growth at 10 µM (MCF7 [3]) [%] | activity at 0.25 h, 50 µM (CYP1A1 [4]) [%] | GI50 (MDA-MB-468 [5]) [µM] | TGI (MDA-MB-468 [5]) [µM] | CC50 (MDA-MB-468 [5]) [µM] | growth at 10 µM (MDA-MB-435 [6]) [%] | growth at 100 µM (NCI-H226 [7]) [%] | growth at 100 µM (MDA-MB-468 [9]) [%] | GI50 (NCI-H226 [10]) [µM] | LC50 (concentration killing 50% of cells) (NCI-H226 [10]) [µM] | TGI (NCI-H226 [10]) [µM] | GI50 (MCF7 [11]) [µM] | TGI (MCF7 [11]) [µM] | CC50 (MCF7 [11]) [µM] | activity at 0.25 h, 0.01 µM (CYP1A1 [12]) [%] | activity at 0.25 h, 10 µM (CYP1A1 [13]) [%] | growth at 10 µM (NCI-H226 [14]) [%] | growth at 1 µM (MDA-MB-468 [15]) [%] | also measured
Cc1cc(C)n(C(=O)CCn2nc(C)c(Cl)c2C)n1 | 100 | 77.6 | 74 | 36.4 | > 100 | > 100 | > 100 | 100 | 55.6 | 68.3 | > 100 | > 100 | > 100 | 54.8 | > 100 | > 100 | 79.9 | 50.6 | 71.4 | 100 | IC50 (Cytochrome P450 1A1 [8]): 10 µM; GI50 (MDA-MB-435 [16]): > 100 µM; LC50 (MDA-MB-435 [16]): > 100 µM; TGI (MDA-MB-435 [16]): > 100 µM; activity at 0.25 h, 100 µM (CYP1A1 [17]): 35.1%; growth at 100 µM (MDA-MB-435 [18]): 84.9%; growth at 1 µM (MDA-MB-435 [19]): 100%; growth at 0.1 µM (MDA-MB-435 [20]): 100%; growth at 0.1 µM (NCI-H226 [21]): 80.4%; activity at 0.25 h, 0.1 µM (CYP1A1 [22]): 62.2%; growth at 1 µM (MCF7 [23]): 78.7%; activity at 0.25 h, 1 µM (CYP1A1 [24]): 52.9%; growth at 0.1 µM (MCF7 [25]): 85.9%; growth at 100 µM (MCF7 [26]): 22.9%; growth at 10 µM (MDA-MB-468 [27]): 97.7%
Cc1cc(C)n(C(=O)CNc2ccccc2Cl)n1 | 100 | 73.4 | 77.2 | 104 | 89.3 | > 100 | > 100 | 100 | 63.6 | 43.3 | > 100 | > 100 | > 100 | 61.1 | > 100 | > 100 | 101 | 98.2 | 71.5 | 100 | inhibition (INH) (Cytochrome P450 1A1 [28]): Not Active; GI50 (MDA-MB-435 [16]): > 100 µM; LC50 (MDA-MB-435 [16]): > 100 µM; TGI (MDA-MB-435 [16]): > 100 µM; activity at 0.25 h, 100 µM (CYP1A1 [17]): 99.3%; growth at 100 µM (MDA-MB-435 [18]): 85.9%; growth at 1 µM (MDA-MB-435 [19]): 100%; growth at 0.1 µM (MDA-MB-435 [20]): 100%; growth at 0.1 µM (NCI-H226 [21]): 82.5%; activity at 0.25 h, 0.1 µM (CYP1A1 [22]): 100%; growth at 1 µM (MCF7 [23]): 82.9%; activity at 0.25 h, 1 µM (CYP1A1 [24]): 99.9%; growth at 0.1 µM (MCF7 [25]): 89.6%; growth at 100 µM (MCF7 [26]): 26.7%; growth at 10 µM (MDA-MB-468 [27]): 94.7%
C[C@H](Oc1ccc(Cl)cc1)C(=O)Nc1sc2c(c1C(N)=O)CCCC2 | 100 | 72.9 | 71.7 | 97.4 | > 100 | > 100 | > 100 | 100 | 61.9 | 65.5 | > 100 | > 100 | > 100 | 56.3 | > 100 | > 100 | 100 | 98.2 | 68.1 | 100 | inhibition (INH) (Cytochrome P450 1A1 [28]): Not Active; GI50 (MDA-MB-435 [16]): > 100 µM; LC50 (MDA-MB-435 [16]): > 100 µM; TGI (MDA-MB-435 [16]): > 100 µM; activity at 0.25 h, 100 µM (CYP1A1 [17]): 102%; growth at 100 µM (MDA-MB-435 [18]): 86.9%; growth at 1 µM (MDA-MB-435 [19]): 100%; growth at 0.1 µM (MDA-MB-435 [20]): 100%; growth at 0.1 µM (NCI-H226 [21]): 80.9%; activity at 0.25 h, 0.1 µM (CYP1A1 [22]): 97.7%; growth at 1 µM (MCF7 [23]): 76.3%; activity at 0.25 h, 1 µM (CYP1A1 [24]): 97.2%; growth at 0.1 µM (MCF7 [25]): 81.5%; growth at 100 µM (MCF7 [26]): 27.2%; growth at 10 µM (MDA-MB-468 [27]): 78.7%
